What was measured:
complex I = experiment: Complex I inhibition in SH-SY5Y cells; type: cell-based
Procedure: Step 5. Screening in mammalian cells treated with inhibitors of specific complexes of the ETC. […] Antimycin A and oligomycin kill SH-SY5Y cells in the high nM range, as assessed by LDH leakage and DNA fragmentation.
Further screening in mammalian cells treated with inhibitors of specific complexes of the ETC is conducted. […] Antimycin A and oligomycin kill SH-SY5Y cells in the high nM range, as assessed by LDH leakage and DNA fragmentation.

SH-SY5Y cells = experiment: Killing of SH-SY5Y cells by ETC inhibitors; type: cell-based; details: for concentration range killing SH-SY5Y cells: LDH leakage and DNA fragmentation
Procedure: Step 5. Screening in mammalian cells treated with inhibitors of specific complexes of the ETC.
Further screening in mammalian cells treated with inhibitors of specific complexes of the ETC is conducted.

yeast lacking Yfh1p = experiment: Yeast-based screening assay (WST-1 tetrazolium dye reduction); type: cell-based; details: glycerol medium, 72 h, OD450, single dose 50 uM, activity threshold >1.32 fold increase in absorbance
Procedure: The aim of this assay is to identify compounds that can improve mitochondrial function in yeast lacking Yfh1p grown in a non-fermentable growth medium. The yeast Yfh1p expression construct used in this study has a galactose-inducible, glucose-repressible promoter driving Yfh1p production. Yfh1p is expressed when yeast are grown in the presence of galactose and inhibited when they are grown in the presence of dextrose. Growing the cells in the presence of dextrose not only turns off the expression of Yfh1p, but also leads to the depletion of Yfh1p in the cells. Transferring the Yfh1p-depleted cells into a non-fermentable, glycerol-based medium dictates that the yeast must use an oxidative pathway. […] Cleavage of the tetrazolium salt to formazan is accompanied by an increase in absorbance at 450 nm.
Compounds in the single dose assay were evaluated on the basis of Fold Induction compared to yeast only, and those in the dose response assay on percent activation, i.e. percent induction of tetrazolium dye reduction in yeast grown in a non-fermentable growth medium. Percent activation was calculated using the optical density in control wells with cells treated with positive control compound (25 uM methyl 4-(1, 2, 4, 5-tetraazin-3-yl) phenyl ether (MLSMR External ID: MLS000550612; PubChem SID: 14718875)) as full induction of tetrazolium dye reduction (100% activation), and wells with cells grown in medium without methyl 4-(1, 2, 4, 5-tetraazin-3-yl) phenyl ether as an indicator of 0% activation. Library compounds were screened at 50 uM. From the 50 uM single dose assay, 1250 compounds with significant tetrazolium dye reduction were selected for confirmatory dose response assay. These compounds were screened in a 10-point dilution series ranging from 0.01 to 100 uM.
The following screening protocol was followed. Yeast cells containing an inducible/repressible promoter for Yfh1p expression were cultured in induction medium (Yfh1 on) with Galactose as the carbon source, and then shifted to repression medium (Yfh1 off) with Dextrose as the carbon source (for 24 hours) to allow Yfh1 protein to decay. The cells were then incubated for 24 h in respiration-only medium (Yfh1 off) with Glycerol as the carbon source to allow cells to equilibrate, and then plated in 384 well plates in respiration-only medium (Yfh1 off) with glycerol as carbon source, in the presence of Tetrazolium dye (WST-1) for 72 hours.
Preparation of Assay • 1. Cells were streaked out on a YPGal agar plate and grown inverted for 3 days at 30 C. • 2. A colony was selected and 10 mL of YPGal medium inoculated and grown over night at 30 C with shaking. • 3. The cells were counted on a coulter counter, centrifuged at 1400 g for 5 min in dextrose (CSMM-D) medium, washed twice to remove all galactose, and resuspended in CSMM-D medium at a cell density of 2 to the power of 5 cells/mL. • 4. Frozen stocks were prepared at this point, in dextrose medium. For these dextrose stock solutions, enough culture was grown in dextrose media over night with shaking at 30 C, to get a cell density of ˜2 to the power of 7 cells/mL. The cells were centrifuged at 1400 g for 5 min and the pellet resuspended in glycerol freezing medium at a cell density of 2 to the power of 8 cells/mL. • 5. The day before the screen, frozen culture was thawed at room temperature and resuspended in glycerol (CSMM-G) medium. • 6. The culture was grown over night at 30 C with shaking and the cells counted and diluted in CSMM-G medium for a final cell density of 4 to the power of 6 cells/mL. • 7. Methyl 4-(1, 2, 4, 5-tetraazin-3-yl) phenyl ether (positive control), CSMM-G medium alone (negative control) and compounds were plated with DMSO at 200× concentration (final concentrations: methyl 4-(1, 2, 4, 5-tetraazin-3-yl) phenyl ether 25 uM, compounds 50 uM, DMSO 0.5%) in 384-well plates: 125 nL/well. For the dose response assay, compounds were plated in a 10-point dilution series ranging from 0.01 to 100 uM, at 1% DMSO. • 8. […]

[1] = tested on: superoxide dismutase activity; experiment: Superoxide dismutase activity in vitro after metal pre-loading (Fluka assay kit); type: biochemical
From the text: 3. Evaluate the catalytic activity of the compound by pre-loading with manganese, iron, or other metal and assaying superoxide dismutase and/or catalase activity in vitro. This assay helps identify a possible mechanism of action that would help explain the unusual combination of high potency, and high specificity, of the compounds embodied herein. […] Yet compounds that act catalytically are usually relatively non-specific, whereas the compounds embodied herein were confirmed active in only one assay (the FA yeast assay mentioned above) of 168 high-throughput screening assays in which they have been tested to date. With no duty to disclose the mechanism of action of the compounds embodied here and without being bound based thereon, it is hypothesized that the compounds embodied herein are chelating iron within cells and acting as superoxide dismutase (SOD) and/or catalase mimetics.
In a further evaluation, the catalytic activity of the test compound was measured by pre-loading with manganese, or various forms of iron, or other metals, and assaying superoxide dismutase activity in vitro using an assay kit from Fluka. Control levels of inhibition of SOD activity was about 4.5%, and 300 nM compound N-[(5-chloro-8-hydroxyquinolin-7-yl)-thiophen-2-ylmethyl]-3-phenylpropanamide pre-loaded with manganese about 5%. However, preloading with iron acetate increased inhibition to about 40%.

I154F FA cells = experiment: I154F frataxin point-mutation model, rescue from FAC and/or BSO; type: cell-based, murine
From the text: 2. Preliminary testing in the I154F frataxin point-mutation model determines whether test compounds can rescue I154F FA cells from lethal concentrations of FAC and/or BSO. Among the mammalian-cell models that have, or recapitulate, the genetic defects underlying FA, by far the most robust (and best validated) is the I154F murine frataxin point-mutation model developed by Puccio and colleagues (Calmels, N. et al.), the first cellular model based on frataxin missense mutations that reproduces spontaneously the defects associated with Friedreich ataxia (PLoS One 4, e6379 (2009)). […] This model is also extremely stable, with phenotypes unchanged after months of continuous culture. In contrast, the mutations in available primary human FA fibroblasts are GAA repeat expansions in the first intron of the FXN gene; occasional cells in which these expansions contract have a growth advantage and take over the culture, diluting the phenotype and increasing variance in various measures of compound efficacy.
In another screen, testing was conducted in the I154F point-mutation model as described above, to determine whether test compounds could rescue I154F FA cells from lethal or sublethal concentrations of FAC and/or BSO. Effective in this screen were the following compounds: N-[(5-chloro-8-hydroxyquinolin-7-yl)-thiophen-2-ylmethyl]-3-phenylpropanamide, N-[(5-chloro-8-hydroxyquinolin-7-yl)-thiophen-2-ylmethyl]pentanamide, N-[(5-chloro-8-hydroxyquinolin-7-yl)-furan-2-ylmethyl]-3-phenylpropanamide, N-[(5-chloro-8-hydroxyquinolin-7-yl)-furan-2-ylmethyl]propanamide, N-[(5-chloro-8-hydroxyquinolin-7-yl)-furan-2-ylmethyl]pentanamide, N-[(5-chloro-8-hydroxyquinolin-7-yl)-tolyl]-3-phenylpropanamide, N-[(5-chloro-8-hydroxyquinolin-7-yl)-(3-methoxyphenyl)methyl]-3-phenylpropanamide, N-[(5-chloro-8-hydroxyquinolin-7-yl)-(4-dimethylaminophenyl)methyl]-3-phenylpropanamide, N-[(5-chloro-8-hydroxyquinolin-7-yl)-(4-chlorophenyl)methyl]-3-phenylpropanamide, N-[(5-chloro-8-hydroxyquinolin-7-yl)-(3-chlorophenyl)methyl]-3-phenylpropanamide, N-[(5-chloro-8-hydroxyquinolin-7-yl)-(2-chlorophenyl)methyl]-3-phenylpropanamide, N-[(5-chloro-8-hydroxyquinolin-7-yl)-(3,4-dimethoxyphenyl)methyl]-3-phenylpropanamide, N-[(5-chloro-8-hydroxyquinolin-7-yl)-(2,4-dimethoxyphenyl)methyl]-3-phenylpropanamide, N-[(5-chloro-8-hydroxyquinolin-7-yl)-(3,4,5-trimethoxyphenyl)methyl]-3-phenylpropanamide, N-[(5-chloro-8-hydroxyquinolin-7-yl)-(2-bromophenyl)methyl]-3-phenylpropanamide, N-[(5-chloro-8-hydroxyquinolin-7-yl)-p-tolyl-methyl]-3-phenylpropanamide, N-[(5-chloro-8-hydroxyquinolin-7-yl)-(2-hydroxyphenyl)methyl]-3-phenylpropanamide (1a-18), and N-[(5-chloro-8-hydroxyquinolin-7-yl)-(4-methoxyphenyl)methyl]-3-phenylpropanamide.

C=C(C)[C@H]1Cc2c(ccc3c2O[C@@H]2COc4cc(OC)c(OC)cc4[C@@H]2C3=O)O1 [Rotenone]
concentration range inhibiting complex I (complex I): nM range
death (SH-SY5Y cells; trypan blue exclusion, after 7 days at 60 μM): 90%

CC(=O)NC(c1ccc(C)cc1)c1cc([N+](=O)[O-])c2cccnc2c1O (centres unmarked) [N-[{8-hydroxy-5-nitro-7-quinolinyl}(4-methylphenyl)methyl]acetamide]
active in the screen (tetrazolium dye reduction) (yeast lacking Yfh1p): active

CCCC(=O)NC(c1cccs1)c1cc([N+](=O)[O-])c2cccnc2c1O (centres unmarked) [N-[(8-hydroxy-5-nitroquinolin-7-yl)-thiophen-2-ylmethyl]butanamide]
active in the screen (tetrazolium dye reduction) (yeast lacking Yfh1p): active

O=C(CCc1ccccc1)NC(c1cccs1)c1cc(Cl)c2cccnc2c1O (centres unmarked) [N-[(5-chloro-8-hydroxyquinolin-7-yl)-thiophen-2-ylmethyl]-3-phenylpropanamide]
inhibition of SOD activity ([1]; 300 nM compound pre-loaded with manganese, control about 4.5%): about 5%
increase in inhibition by iron ([1]; iron acetate versus manganese pre-loading): eight-fold
inhibition of SOD activity ([1]; preloading with iron acetate): about 40%
rescue of I154F FA cells from lethal or sublethal concentrations of FAC and/or BSO (I154F FA cells): Effective
active in the screen (tetrazolium dye reduction) (yeast lacking Yfh1p): active

CCC(=O)NC(c1ccc(C)cc1)c1cc([N+](=O)[O-])c2cccnc2c1O (centres unmarked) [N-[(8-Hydroxy-5-nitro-quinolin-7-yl)-p-tolyl-methyl]-propionamide]
active in the screen (tetrazolium dye reduction) (yeast lacking Yfh1p): active

CC(=O)NC(c1cccs1)c1cc([N+](=O)[O-])c2cccnc2c1O (centres unmarked) [N-[(8-hydroxy-5-nitro-quinolin-7-yl)-thiophen-2-yl-methyl]-acetamide]
active in the screen (tetrazolium dye reduction) (yeast lacking Yfh1p): active

CCCCC(=O)NC(c1ccccc1OC)c1ccc2cccnc2c1O (centres unmarked) [N-[(8-hydroxyquinolin-7-yl)-(2-methoxyphenyl)methyl]pentanamide]
active in the screen (tetrazolium dye reduction) (yeast lacking Yfh1p): active

CCCCC(=O)NC(c1cccs1)c1cc(Cl)c2cccnc2c1O (centres unmarked) [N-[(5-chloro-8-hydroxyquinolin-7-yl)-thiophen-2-ylmethyl]pentanamide]
rescue of I154F FA cells from lethal or sublethal concentrations of FAC and/or BSO (I154F FA cells): Effective
active in the screen (tetrazolium dye reduction) (yeast lacking Yfh1p): active

CCC(=O)NC(c1ccc(OC)c(OC)c1)c1cc(Cl)c2cccnc2c1O (centres unmarked) [N-[(5-chloro-8-hydroxyquinolin-7-yl)-(3,4-dimethoxyphenyl)methyl]propanamide]
active in the screen (tetrazolium dye reduction) (yeast lacking Yfh1p): active

Antimycin A
concentration range killing SH-SY5Y cells (SH-SY5Y cells): high nM range

CCCC(=O)NC(c1ccco1)c1cc([N+](=O)[O-])c2cccnc2c1O (centres unmarked) [N-[2-furyl(8-hydroxy-5-nitro-7-quinolinyl)methyl]butanamide]
active in the screen (tetrazolium dye reduction) (yeast lacking Yfh1p): active

CC[C@H]1/C=C/C=C/C[C@@H](C)[C@H](O)[C@@](C)(O)C(=O)[C@@H](C)[C@H](O)[C@@H](C)C(=O)[C@@H](C)[C@H](O)[C@@H](C)/C=C/C(=O)O[C@@H]2[C@H](C)[C@H](CC1)O[C@]1(CC[C@H](C)[C@H](C[C@@H](C)O)O1)[C@H]2C [oligomycin]
concentration range killing SH-SY5Y cells (SH-SY5Y cells): high nM range

CCC(=O)NC(c1cccs1)c1cc([N+](=O)[O-])c2cccnc2c1O (centres unmarked) [N-[(8-hydroxy-5-nitro-quinolin-7-yl)-thiophen-2-yl-methyl]-propionamide]
active in the screen (tetrazolium dye reduction) (yeast lacking Yfh1p): active

CCC(=O)NC(c1ccc(OC)cc1)c1cc(Cl)c2cccnc2c1O (centres unmarked) [N-[(5-chloro-8-hydroxyquinolin-7-yl)-(4-methoxyphenyl)methyl]propanamide]
active in the screen (tetrazolium dye reduction) (yeast lacking Yfh1p): active

Source: US10745390B2, “Small molecule activators of mitochondrial function” (THE TRUSTEES OF THE UNIVERSITY OF PENNSYLVANIA, priority 2008, dated 2020)
